Reference: paper PMC5509550, “Development of a Novel Lead that Targets M. tuberculosis Polyketide Synthase 13” (Cell, 2017)
In brackets after ≈: the same amount, converted by molar mass.

Columns and labels:
[1] = system: TAM16-resistant Mtb mutants (Pks13 D1644G or D1644Y); format: cell-based, Mycobacterium tuberculosis
[2] = system: Mtb mc^27000; format: cell-based, Mycobacterium tuberculosis

| Structure (SMILES) | MIC against TAM16-resistant mutants [1] [µM] | frequency of resistance observed for INH [2] |
| --- | --- | --- |
| CO[C@H]1/C=C/O[C@@]2(C)Oc3c(C)c(O)c4c(O)c(c(/C=N/N5CCN(C)CC5)c(O)c4c3C2=O)NC(=O)/C(C)=C\C=C\[C@H](C)[C@H](O)[C@@H](C)[C@@H](O)[C@@H](C)[C@H](OC(C)=O)[C@@H]1C [RIF, Rifampicin] | 0.04 (≈ 0.0329 µg/mL) | – |
| NNC(=O)c1ccncc1 [INH, Isoniazid] | 0.2 (≈ 0.0274 µg/mL) | 1 × 10^−6 |
